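Growth conditions: 96-well plates. Treatment: test compound, 48 hours, 5 concentrations. Analysis: linear interpolation between bracketing concentrations; unreached endpoints set to highest concentration. GI50 = concentration required for 50% inhibition of growth.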 Calls of active or inactive are those of the source. Rule as the data show it: active = GI50 up to about 1.1 µM and inactive = higher.
Experiments:
Assay in all cases: NCI anticancer screen, dose series, 48 h
HT-29 = system: HT-29
SNB-19 = system: SNB-19
MOLT-4 = system: MOLT-4
KM-20L2 = system: KM-20L2
K562 = system: K562
A549 = system: A549
SW-620 = system: SW-620
NCI-H23 = system: NCI-H23
NCI-H522 = system: NCI-H522
OVCAR-5 = system: OVCAR-5
SNB-75 = system: SNB-75
RPMI-8226 = system: RPMI-8226
COLO 205 = system: COLO 205
UO-31 = system: UO-31
CCRF-CEM = system: CCRF-CEM
SK-MEL-5 = system: SK-MEL-5
LXFL 529 = system: LXFL 529
SK-MEL-2 = system: SK-MEL-2
SF-539 = system: SF-539
SF-268 = system: SF-268
OVCAR-4 = system: OVCAR-4
RXF 631 = system: RXF 631
A498 = system: A498
M14 = system: M14
Malme-3M = system: Malme-3M
HCC 2998 = system: HCC 2998
HOP-62 = system: HOP-62
ACHN = system: ACHN
NCI-H460 = system: NCI-H460
SN12C = system: SN12C
DLD-1 = system: DLD-1
HOP-92 = system: HOP-92
HCT-15 = system: HCT-15
DMS-273 = system: DMS-273
SF-295 = system: SF-295
786-0 = system: 786-0
SK-OV-3 = system: SK-OV-3
HL-60 = system: HL-60
LOX IMVI = system: LOX IMVI
RXF 393 = system: RXF 393
NCI-H226 = system: NCI-H226
HCT-116 = system: HCT-116
OVCAR-3 = system: OVCAR-3
U-251 = system: U-251
XF498 = system: XF498
OVCAR-8 = system: OVCAR-8
UACC-257 = system: UACC-257
EKVX = system: EKVX
SK-MEL-28 = system: SK-MEL-28
DMS-114 = system: DMS-114
KM12 = system: KM12
CAKI-1 = system: CAKI-1
SNB-78 = system: SNB-78
TK-10 = system: TK-10

For N#C/C(=C\c1c(O)cc(O)cc1O)C(N)=O, the GI50 (HT-29) was > 100 µM (inactive), the GI50 (SNB-19) was > 100 µM (inactive) and the GI50 (MOLT-4) was > 100 µM (inactive). The GI50 (KM-20L2) was > 100 µM (inactive), the GI50 (K562) was > 100 µM (inactive) and the GI50 (A549) was > 100 µM (inactive). For the same compound, the GI50 (SW-620) was > 100 µM (inactive), the GI50 (NCI-H23) was > 100 µM (inactive) and the GI50 (NCI-H522) was > 100 µM (inactive). For the same compound, the GI50 (OVCAR-5) was > 100 µM (inactive), the GI50 (SNB-75) was 36.2 µM (inactive) and the GI50 (RPMI-8226) was > 100 µM (inactive). For the same compound, the GI50 (COLO 205) was > 100 µM (inactive), the GI50 (UO-31) was > 100 µM (inactive) and the GI50 (CCRF-CEM) was > 100 µM (inactive). The GI50 (SK-MEL-5) was > 100 µM (inactive), the GI50 (LXFL 529) was > 100 µM (inactive) and the GI50 (SK-MEL-2) was > 100 µM (inactive). The GI50 (SF-539) was > 100 µM (inactive), the GI50 (SF-268) was > 100 µM (inactive) and the GI50 (OVCAR-4) was > 100 µM (inactive). For the same compound, the GI50 (RXF 631) was > 100 µM (inactive), the GI50 (A498) was > 100 µM (inactive) and the GI50 (M14) was > 100 µM (inactive). For the same compound, the GI50 (Malme-3M) was > 100 µM (inactive), the GI50 (HCC 2998) was > 100 µM (inactive) and the GI50 (HOP-62) was > 100 µM (inactive). The GI50 (ACHN) was > 100 µM (inactive), the GI50 (NCI-H460) was > 100 µM (inactive) and the GI50 (SN12C) was > 100 µM (inactive). The GI50 (DLD-1) was > 100 µM (inactive), the GI50 (HOP-92) was > 100 µM (inactive) and the GI50 (HCT-15) was over 100 µM. For the same compound, the GI50 (DMS-273) was > 100 µM (inactive), the GI50 (SF-295) was > 100 µM (inactive) and the GI50 (786-0) was > 100 µM (inactive). The GI50 (SK-OV-3) was > 100 µM (inactive), the GI50 (HL-60) was > 100 µM (inactive) and the GI50 (LOX IMVI) was > 100 µM (inactive). The GI50 (RXF 393) was > 100 µM (inactive), the GI50 (NCI-H226) was > 100 µM (inactive) and the GI50 (HCT-116) was > 100 µM (inactive). The GI50 (OVCAR-3) was > 100 µM (inactive), the GI50 (U-251) was > 100 µM (inactive) and the GI50 (XF498) was > 100 µM (inactive). For the same compound, the GI50 (OVCAR-8) was > 100 µM (inactive), the GI50 (UACC-257) was > 100 µM (inactive) and the GI50 (EKVX) was > 100 µM (inactive). For the same compound, the GI50 (SK-MEL-28) was > 100 µM (inactive), the GI50 (DMS-114) was > 100 µM (inactive) and the GI50 (KM12) was > 100 µM (inactive). The GI50 (CAKI-1) was > 100 µM (inactive), the GI50 (SNB-78) was > 100 µM (inactive) and the GI50 (TK-10) was > 100 µM (inactive).

— ChEMBL document CHEMBL1201862, “PubChem BioAssay data set” (2004)
